Test results reported in patent publication US12357596B2, “Compounds for prevention and treatment of obesity and related disorders” (ABREXA PHARMACEUTICALS, INC., priority 2019, dated 2025).

Experiment: 28-day once-daily oral gavage toxicity study with 14-day recovery (body weight, food consumption, clinical and anatomic pathology)
Type: in vivo
Conditions: for Decrease of group mean food consumption compared to Group 1 controls: Days 21 to 28
Description: J147 or vehicle was administered once daily to Sprague-Dawley rats via oral gavage for 28 consecutive days at a daily dose of 0, 30, 100 or 300 mg/kg. J174 was prepared in a vehicle formulation comprising 5% ethanol, 5% DMSO and 90% corn oil (v/v/v). Certified rodent diet and water was available ad libitum. Groups 1-4 contained 10 animals/sex/group. Groups 1 (control) and 4 (high dose) also included an additional 5 animals/sex/group for use as recovery animals. The recovery animals were maintained on study for a 14-day postdosing recovery period. Animals in Groups 1-4 were monitored for morbidity and mortality, clinical signs, detailed clinical observations, body weight, food consumption, ophthalmologic parameters, neurobehavioral assessment consisting of a Functional Observational Battery (FOB) and a motor activity test, hematology, coagulation, serum chemistry, and urinalysis parameters. Postmortem assessment included necropsy, measurement of selected organ weights, and microscopic evaluation of a standard set of tissues. Plasma samples for bioanalysis were collected on Days 1 and 28 from satellite toxicokinetic animals in Groups 5 through 8. Animals in these groups were euthanized following the last blood sampling and carcasses were discarded without examination. The study protocol is shown below in Table 1.

[1] = male rats, 30 mg/kg/day, Day 14 → 21
[2] = male rats, 30 mg/kg/day, Day 21 → 28
[3] = male rats, 30 mg/kg/day, Day −1 → 7
[4] = male rats, 100 mg/kg/day, Day 7 → 14
[5] = male rats, 100 mg/kg/day, Day 14 → 21
[6] = male rats, 100 mg/kg/day, Day 21 → 28
[7] = male rats, 100 mg/kg/day, Day 28
[8] = male rats, 100 mg/kg/day, Day −1 → 7
[9] = male rats, 300 mg/kg/day, Day 7 → 14
[10] = male rats, 300 mg/kg/day, Day 14 → 21
[11] = male rats, 300 mg/kg/day, Day 21 → 28
[12] = male rats, 300 mg/kg/day, Day 28
[13] = male rats, 300 mg/kg/day, Day −1 → 7
[14] = rats, both sexes, 300 mg/kg/day
[15] = rats, both sexes, 100 and 300 mg/kg/day

Compound: COc1cccc(/C=N/N(C(=O)C(F)(F)F)c2ccc(C)cc2C)c1 [J147]
- Mean Bodyweight Gain [1]: 39.61 g
- Mean Food Consumption [1]: 25.03
- Mean Bodyweight (male rats, 30 mg/kg/day, Day 21): 430.90 g
- Mean Bodyweight Gain [2]: 34.51 g
- Mean Food Consumption [2]: 25.13
- Mean Bodyweight (male rats, 30 mg/kg/day, Day 28): 465.41 g
- Mean Bodyweight (male rats, 30 mg/kg/day, Day −1 (pre-dose)): 285.27 g
- Mean Bodyweight Gain [3]: 53.64 g
- Mean Food Consumption [3]: 23.90
- Mean Bodyweight Gain (male rats, 30 mg/kg/day, Day −1 → 28): 180.14 g
- Mean Bodyweight (male rats, 30 mg/kg/day, Day −2 (pre-dose)): 278.60 g
- Mean Bodyweight (male rats, 100 mg/kg/day, Day 7): 335.34 g
- Mean Bodyweight Gain [4]: 41.14 d^2 g
- Mean Food Consumption [4]: 21.47 dd^2
- Mean Bodyweight (male rats, 100 mg/kg/day, Day 14): 376.48 g
- Mean Bodyweight Gain [5]: 33.50 g
- Mean Food Consumption [5]: 23.65
- Mean Bodyweight (male rats, 100 mg/kg/day, Day 21): 409.98 g
- Mean Bodyweight Gain [6]: 26.89 g
- Mean Food Consumption [6]: 23.73
- Decrease of group mean body weight compared to Group 1 controls [7]: 5.9%
- Mean Bodyweight [7]: 436.87 g
- Mean Bodyweight (male rats, 100 mg/kg/day, Day −1 (pre-dose)): 286.67 g
- Mean Bodyweight Gain [8]: 48.67 g
- Mean Food Consumption [8]: 23.68
- Mean Bodyweight Gain (male rats, 100 mg/kg/day, Day −1 → 28): 150.20 g
- Mean Bodyweight (male rats, 100 mg/kg/day, Day −2 (pre-dose)): 278.57 g
- Decrease of group mean food consumption compared to Group 1 controls (male rats, 100 mg/kg/day): 4.9%
- Levels of urinary ketones (male rats, 300 mg/kg/day): increased
- Mean Food Consumption (male rats, 300 mg/kg/day for 28 days, Day 28 → 35 (recovery)): 26.98
- Mean Bodyweight Gain (male rats, 300 mg/kg/day for 28 days, Day 28 → 42 (recovery)): 50.60 g
- Mean Bodyweight (male rats, 300 mg/kg/day for 28 days, Day 35 (recovery)): 415.68 dd^3 g
- Mean Food Consumption (male rats, 300 mg/kg/day for 28 days, Day 35 → 42 (recovery)): 28.99
- Mean Bodyweight (male rats, 300 mg/kg/day for 28 days, Day 42 (recovery)): 446.14 d^4 g
- Mean Bodyweight (male rats, 300 mg/kg/day, Day 7): 321.93 dd^2 g
- Mean Bodyweight Gain [9]: 28.89 dd^3 g
- Mean Food Consumption [9]: 20.24 dd^2
- Mean Bodyweight (male rats, 300 mg/kg/day, Day 14): 350.83 dd^2 g
- Mean Bodyweight Gain [10]: 21.21 dd^3 g
- Mean Food Consumption [10]: 21.50 dd^2
- Mean Bodyweight (male rats, 300 mg/kg/day, Day 21): 372.04 dd^2 g
- Mean Bodyweight Gain [11]: 16.71 dd^3 g
- Mean Food Consumption [11]: 20.78 dd^2
- Decrease of group mean body weight compared to Group 1 controls [12]: 16.2%
- Mean Bodyweight [12]: 388.75 dd^2 g
- Mean Bodyweight (male rats, 300 mg/kg/day, Day −1 (pre-dose)): 287.50 g
- Mean Bodyweight Gain [13]: 34.43 dd^3 g
- Mean Food Consumption [13]: 19.83 dd^2
- Mean Bodyweight Gain (male rats, 300 mg/kg/day, Day −1 → 28): 101.25 dd^3 g
- Mean Bodyweight (male rats, 300 mg/kg/day, Day −2 (pre-dose)): 278.97 g
- Decrease of group mean food consumption compared to Group 1 controls (male rats, 300 mg/kg/day): 16.7%
- Mean serum triglyceride concentrations (male rats, 100 and 300 mg/kg/day): Decreased
- Group mean weight gain from Day −1 to 28 (male rats, Group 2 (30 mg/kg/day)): 180 grams
- Group mean weight gain from Day −1 to 28 (male rats, Group 3 (100 mg/kg/day)): 150 grams
- Group mean weight gain from Day −1 to 28 (male rats, Group 4 (300 mg/kg/day)): 101 grams
- Effects on serum triglyceride concentrations and red cell mass at the end of the 14-day recovery period (rats previously administered 300 mg/kg/day for 28 days): persisted
- Alterations considered related to test article administration (rats, 30 mg/kg/day): no alterations
- Organ weight, macroscopic or microscopic findings after recovery (rats, 300 mg/kg/day, Day 43 following 2-week treatment-free recovery): no J147-related organ weight, macroscopic or microscopic findings
- Recovery of body weight and body weight gain (rats, 14-day recovery period): Full recovery
- Motor activity portion of the Functional Observational Battery (FOB) (rats, Day 1, males at all dose levels, females at 100 and 300 mg/kg/day, not considered adverse): general decrease in activity
- Subacute perivascular inflammation in the liver (microscopic) [14]: noted
- Thymic lymphoid depletion [14]: noted
- lowest-observed-adverse-effect-level (LOAEL) (rats, both sexes, 28-day oral gavage): 100 mg/kg/day
- Body weight, body weight gain, and food consumption [15]: decreased
- Food consumption compared to Group 1 controls [15]: decreased
- Group mean thymus weights [15]: Decreases
- Hepatocellular hypertrophy (microscopic) [15]: seen
- Prothrombin time (rats, both sexes, all dose levels): decreased
- Mean platelet and reticulocyte counts (rats, end of 28-day treatment, all dose levels, both sexes): increased
- Mean red blood cell counts, hematocrit, and hemoglobin values (rats, end of 28-day treatment, males at all dose levels, females at 100 and 300 mg/kg/day): decreased
- Terminal necropsy findings (rats, one or two animals at 300 mg/kg/day): enlarged liver and small thymus
- J147-related effects on body weight and food consumption following cessation of treatment (rats, recovery period): reversible
- Noteworthy clinical observations during the 28-day treatment period (rats, some animals of both sexes, 300 mg/kg/day): soft feces
- Incidence of single cell necrosis of acinar cells in the pancreas (rats, both sexes at 300 mg/kg/day, males at 100 mg/kg/day): increased
- Mean serum glucose concentrations (rats, males at 100 mg/kg/day, both sexes at 300 mg/kg/day): Decreased
- Group mean liver weights (rats, males at all dose levels, females at 100 and 300 mg/kg/day): increased
